According to paper PMC7918520, “From Data Mining of Chitinophaga sp. Genome to Enzyme Discovery of a Hyperthermophilic Metallocarboxypeptidase” (Microorganisms, 2021):
Peptide text beside a SMILES is read from it. * marks the point of attachment. Cbz = O=C(OCc1ccccc1)*

How the values were obtained:
ChtCP = target: T1, ChtCP (Chitinophaga sp. CB10, UniProt A0A822ZZF9); test: Cd-ninhydrin assay of released amino acids, A500, Michaelis-Menten fit; type: biochemical; conditions: 50 mM HEPES pH 8.0, 65 °C; substrate 0.195 to 25 mM; metal addition not stated
T1 construct: homodimer; motifs 76HHPEL80 and 267HEXXH271
T1 sequence (A0A822ZZF9 entry or part of it): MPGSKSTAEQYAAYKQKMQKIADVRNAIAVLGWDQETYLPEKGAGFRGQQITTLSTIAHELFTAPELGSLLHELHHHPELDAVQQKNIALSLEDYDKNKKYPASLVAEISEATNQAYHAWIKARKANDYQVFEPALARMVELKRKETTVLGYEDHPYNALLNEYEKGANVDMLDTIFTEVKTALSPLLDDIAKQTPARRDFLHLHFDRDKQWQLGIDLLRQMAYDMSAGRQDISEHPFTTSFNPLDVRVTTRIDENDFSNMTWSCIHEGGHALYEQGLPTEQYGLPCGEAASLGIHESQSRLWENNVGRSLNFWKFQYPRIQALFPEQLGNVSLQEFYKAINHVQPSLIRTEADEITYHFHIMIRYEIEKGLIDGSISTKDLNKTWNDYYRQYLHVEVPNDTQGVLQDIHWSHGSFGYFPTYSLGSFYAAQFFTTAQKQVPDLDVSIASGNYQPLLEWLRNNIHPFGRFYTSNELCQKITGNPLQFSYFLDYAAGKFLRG
Excerpt: Cd-ninhydrin assay of released amino acids, A500, Michaelis-Menten fit on ChtCP

[1] = target: ChtCP, M32 family metallocarboxypeptidase from Chitinophaga sp. CB10 (Chitinophaga sp. CB10); test: SEC; HiLoad Superdex 200 16/60, 20 mM Tris-HCl pH 8, 200 mM NaCl, 0.5% glycerol, 4 °C, 1 mL/min; elution volume compared with mass standards

Molecule | Km (ChtCP) [mM] | stoichiometry N [1]
C[C@H](NC(=O)[C@H](C)NC(=O)OCc1ccccc1)C(=O)O [ZAA, benzyloxycarbonyl Ala-Ala] (Cbz-Ala-Ala-OH) | 28.1 | 
C[C@H](NC(=O)OCc1ccccc1)C(=O)N[C@@H](CC(N)=O)C(=O)O [ZAN, benzyloxycarbonyl Ala-Asn] (Cbz-Ala-Asn-OH) | 34.1 | 
C[C@H](NC(=O)OCc1ccccc1)C(=O)N[C@@H](CCCNC(=N)N)C(=O)O [ZAR, benzyloxycarbonyl Ala-Arg] (Cbz-Ala-Arg-OH) | 3.51 | 
C[C@H](NC(=O)OCc1ccccc1)C(=O)N[C@@H](Cc1c[nH]c2ccccc12)C(=O)O [ZAW, benzyloxycarbonyl Ala-Trp] (Cbz-Ala-Trp-OH) | 1.1 | 
ChtCP, M32 family metallocarboxypeptidase from Chitinophaga sp. CB10 (enzyme) |  | 2
